According to patent publication US12285426B2, “Combination serotonin specific reuptake inhibitor and serotonin 1A receptor partial agonist for reducing L-DOPA-induced dyskinesia” (The Research Foundation for The State University of new York, priority 2018, dated 2025):

Columns and labels:
[1] = system: 6-OHDA-lesioned rats, L-DOPA-induced dyskinesia; test: Experiment 1: AIMs, established LID in L-DOPA-primed hemi-parkinsonian rats; assay type: in vivo, rat
[2] = system: 6-OHDA-lesioned rats, forelimb akinesia; test: Experiment 1: forepaw adjusting steps (FAS); assay type: in vivo, rat; settings: for FAS motor performance vs baseline: LD 6 mg/kg alone or with VZD 10/20 mg/kg
Excerpt: Conti et al., 2014). […] Forepaw adjusting steps (FAS): The FAS test is a measure of forelimb akinesia performed according to previous protocols (Bishop et al., 2012; Chang et al., 1999). Data are presented as mean percent intact stepping where the sum of the total steps with the lesioned forepaw was divided by the total steps with the unlesioned forepaw multiplied by 100. Lower percent intact scores indicate greater forelimb akinesia. Prior to baseline, rats received 2 acclimation periods. On-treatment FAS was performed 60 min post-L-DOPA.

[3] = system: striatum and DRN monoamines and metabolites; test: Experiment 1: HPLC of striatal and dorsal raphe tissue monoamines; assay type: in vivo, rat
Experimental: Rats (n=30) were rendered hemi-parkinsonian with unilateral 6-OHDA lesions of the left MFB. Three-weeks post-lesion, animals were divided into 2 equally disabled groups, measured by forepaw adjusting steps (FAS, see below). One group (n=8) began receiving 14 days of daily vehicle (0.9% NaCl+0.1% ascorbic acid) and the other (n=22) received L-DOPA methyl ester (6 mg/kg, s.c.; Sigma)+DL-serine 2-(2,3,4-trihydroxybenzyl) hydrazine hydrochloride (benserazide; 15 mg/kg, s.c.; Sigma), hereafter L-DOPA, dissolved in vehicle at a volume of 1 mL/kg. […] Thereafter, L-DOPA-treated animals with Axial, Limb, and Orolingual (ALO) AIMs (see description below, FIG. 1A)<30 were excluded from the study and the remaining L-DOPA-treated animals were divided into 3 equally dyskinetic groups. […] Daily injections continued over 23 days, with behavior assayed on Days 15, 22, 29, and 36. On Day 37, animals were killed 60 min post-treatment. Left and right dorsal striata and DRN were dissected and flash frozen for HPLC analyses.
High-performance liquid chromatography (HPLC): HPLC, a method for semi-automated catecholamine analysis with coulometric detection, was performed according to prior protocols (Bishop et al., 2009) to determine the tissue levels of monoamines, their metabolites, and monoamine turnover in the striatum and DRN. The limit of detection for DOPAC, DA, 5-hydroxyindoleacetic acid (5-HIAA) and 5-HT was 10^−10 M. Final oxidation current values were plotted on a standard curve from 10^−6 M to 10^−9 M and expressed as pg of monoamine or metabolite per mg of tissue unless otherwise specified.
On the final treatment day, animals were sacrificed 60 min post-LD treatment and left and right striata and dorsal raphe nucleus (DRN) were collected for high performance liquid chromatography (HPLC) analysis. Values (means±standard mean error) are expressed as picograms of monoamine or metabolite per milligram wet tissue weight. Turnover estimates were determined by dividing a subject's metabolite value by its corresponding monoamine.

[4] = system: 6-OHDA-lesioned rats, L-DOPA-induced dyskinesia; test: Experiment 2: AIMs, LID development in L-DOPA-naive hemi-parkinsonian rats; assay type: in vivo, rat; settings: VZD 10 or 20 mg/kg + LD 6 mg/kg, treatment naive, 3 weeks
[5] = system: 6-OHDA-lesioned rats, forelimb akinesia; test: Experiment 2: forepaw adjusting steps (FAS); assay type: in vivo, rat; settings: for FAS vs baseline: LD 6 mg/kg alone or with VZD
Excerpt: Forepaw adjusting steps (FAS): The FAS test is a measure of forelimb akinesia performed according to previous protocols (Bishop et al., 2012; Chang et al., 1999). Data are presented as mean percent intact stepping where the sum of the total steps with the lesioned forepaw was divided by the total steps with the unlesioned forepaw multiplied by 100. Lower percent intact scores indicate greater forelimb akinesia. Prior to baseline, rats received 2 acclimation periods. On-treatment FAS was performed 60 min post-L-DOPA.

[6] = system: L-DOPA-primed 6-OHDA-lesioned rats; 5-HT1BR; test: Experiment 3: AIMs with 5-HT1BR antagonist NAS-181; assay type: in vivo, rat; settings: VZD 10 mg/kg, NAS-181 3.0 mg/kg, LD 6 mg/kg s.c.
Experimental: All 6-OHDA-lesioned rats (n=17) were tested on the FAS prior to treatment regimens to establish baseline motor performance. Three-weeks post-surgery, all rats were primed with L-DOPA (6 mg/kg, s.c.) for 14 days.
Beginning 10 min post-treatment, a trained and blinded observer assigned a severity score (0-4) to each of the ALO AIMs based on 1 min ratings every 10 min for 3 h: 0, not present; 1, present from 1-29 s; 2, present 30-59s; 3, present all 60 s, but interruptible by a cylinder tap; 4, present 60 s and not interruptible by a cylinder tap.

hemi-parkinsonian rats = test: Side effects during chronic Vilazodone treatment; assay type: in vivo, rat
[7] = system: 6-OHDA-lesioned rats, L-DOPA-induced dyskinesias; test: Example 2: LIDs scoring in unilateral 6-OHDA-lesioned rats; assay type: in vivo, rat; settings: vilazodone 10 mg/kg or escitalopram 12.5 mg/kg + L-DOPA 5 mg/kg, 2 weeks
Experimental: 6-OHDA-induced dopaminergic lesions: Adult male Sprague-Dawley rats were randomly assigned to groups receiving either a 6-OHDA or sham lesion. […] [[…] 2019]. […] Rats were treated for 5 consecutive days/week (Mon-Fri), for 2 weeks. […] All rats were evaluated three times per week for the presence of L-DOPA-induced dyskinesias (LIDs) (Wed-Fri) and once for the stepping test (Tue). […] Scores were given over 1 min epochs and classified as axial, limb, orolingual and locomotive. […] The severity of each LID was scored using a standard scale. Each dyskinetic behavior was given an intensity and frequency score, which were then multiplied. The average sum of the products of each LID was determined in each animal.

[8] = system: 6-OHDA-lesioned rats, forelimb akinesia; test: Example 2: stepping test; assay type: in vivo, rat; settings: 60 minutes post L-DOPA
Experimental: 6-OHDA-induced dopaminergic lesions: Adult male Sprague-Dawley rats were randomly assigned to groups receiving either a 6-OHDA or sham lesion. All rats received desipramine (10 mg/kg i.p.) 30 min prior to surgery to prevent the lesioning of norepinephrine neurons by 6-OHDA. A single injection of 6-OHDA (8 μg of 6-OHDA free base in 4 p of 0.1% ascorbic acid) was delivered into the right medial forebrain bundle (coordinates taken from bregma: −4.3 mm AP, 1.6 mm ML, −8.3 mm DV). The same experimental treatment was performed for the sham-operated rats using vehicle (4 μl of 0.1% ascorbic acid). A standard stepping test was used to evaluate the effectiveness of the 6-OHDA lesion.
Rats were treated for 5 consecutive days/week (Mon-Fri), for 2 weeks. On the second day of each week, stepping tests were performed prior to drug administration, and 60 minutes post L-DOPA treatment.

[9] = system: MSNs of dyskinetic 6-OHDA-lesioned rats; test: Example 2: electrophysiology of striatal MSNs; assay type: in vivo, rat; settings: co-administration with L-DOPA
[10] = system: L-DOPA-induced dyskinesia; test: FIG. 24: LID development over 14 days, vilazodone and/or amantadine; assay type: in vivo
Excerpt: FIGS. 24B-24E show percent intact+S.E.M. over time for the respective groups.

[11] = system: L-DOPA-primed 6-OHDA-lesioned rats; 5-HT1AR
NET = NET (Homo sapiens, UniProt P23975); settings: cited from earlier work
NET, sequence (P23975 whole entry): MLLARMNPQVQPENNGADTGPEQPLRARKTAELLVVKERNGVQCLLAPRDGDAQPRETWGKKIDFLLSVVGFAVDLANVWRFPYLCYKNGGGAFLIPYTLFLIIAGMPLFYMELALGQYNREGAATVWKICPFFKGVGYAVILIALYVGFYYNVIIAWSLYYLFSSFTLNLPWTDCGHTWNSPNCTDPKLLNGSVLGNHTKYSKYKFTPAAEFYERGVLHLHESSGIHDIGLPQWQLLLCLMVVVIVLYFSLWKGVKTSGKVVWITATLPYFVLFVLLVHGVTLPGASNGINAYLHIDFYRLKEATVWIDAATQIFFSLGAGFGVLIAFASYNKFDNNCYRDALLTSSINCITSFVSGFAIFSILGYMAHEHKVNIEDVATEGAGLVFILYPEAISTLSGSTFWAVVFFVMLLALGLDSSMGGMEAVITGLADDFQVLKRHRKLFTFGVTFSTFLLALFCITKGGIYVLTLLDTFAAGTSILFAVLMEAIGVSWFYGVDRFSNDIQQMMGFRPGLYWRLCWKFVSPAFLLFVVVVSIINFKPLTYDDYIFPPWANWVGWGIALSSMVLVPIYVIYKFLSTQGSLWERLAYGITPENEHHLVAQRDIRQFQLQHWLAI

DAT = DAT (Homo sapiens, UniProt Q01959); settings: cited from earlier work
DAT, sequence (Q01959 whole entry, species assumed): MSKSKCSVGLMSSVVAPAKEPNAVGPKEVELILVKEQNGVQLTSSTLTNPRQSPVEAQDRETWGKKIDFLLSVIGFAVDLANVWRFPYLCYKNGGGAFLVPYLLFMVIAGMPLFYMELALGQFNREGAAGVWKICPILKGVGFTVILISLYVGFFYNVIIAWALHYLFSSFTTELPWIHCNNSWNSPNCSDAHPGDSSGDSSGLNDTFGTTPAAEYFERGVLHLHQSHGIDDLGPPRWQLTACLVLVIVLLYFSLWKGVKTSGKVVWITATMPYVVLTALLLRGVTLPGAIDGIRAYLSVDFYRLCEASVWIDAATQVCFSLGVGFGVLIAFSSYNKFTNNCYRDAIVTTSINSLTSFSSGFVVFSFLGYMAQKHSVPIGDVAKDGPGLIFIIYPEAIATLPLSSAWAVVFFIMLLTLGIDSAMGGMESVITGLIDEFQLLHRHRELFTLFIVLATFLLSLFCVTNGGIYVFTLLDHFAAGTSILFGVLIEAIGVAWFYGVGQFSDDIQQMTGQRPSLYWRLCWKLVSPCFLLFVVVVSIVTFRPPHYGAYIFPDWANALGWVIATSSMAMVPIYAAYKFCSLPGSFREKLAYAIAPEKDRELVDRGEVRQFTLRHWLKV

[12] = target: T1, 5-HT1A receptor expressed in SF9 cells (Homo sapiens, UniProt P08908); settings: cited from earlier work
T1 construct: expressed in transfected cells; host or cells: SF9 cells
T1 sequence (P08908 1-422): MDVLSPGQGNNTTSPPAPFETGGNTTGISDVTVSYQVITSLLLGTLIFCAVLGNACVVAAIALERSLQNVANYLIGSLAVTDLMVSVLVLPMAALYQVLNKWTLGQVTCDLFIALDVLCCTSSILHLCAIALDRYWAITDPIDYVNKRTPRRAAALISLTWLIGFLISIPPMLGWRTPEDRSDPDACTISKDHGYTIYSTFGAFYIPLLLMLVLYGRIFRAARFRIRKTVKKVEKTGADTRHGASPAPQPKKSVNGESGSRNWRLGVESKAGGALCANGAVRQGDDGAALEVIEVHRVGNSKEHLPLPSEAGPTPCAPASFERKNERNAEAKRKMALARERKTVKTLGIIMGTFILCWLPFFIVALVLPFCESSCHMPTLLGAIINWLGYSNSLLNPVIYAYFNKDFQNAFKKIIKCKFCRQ

[13] = system: extracellular levels of norepinephrine or dopamine; settings: 1 and 10 mg/kg; cited from earlier work
[14] = system: striatal c-Fos, PPD, PPE, PPT, 5-HT1AR mRNA; test: Experiment 2: real-time RT-PCR of striatal gene expression; settings: for striatal PPE mRNA / striatal PPD mRNA / striatal c-Fos mRNA: lesioned striata, LD 6 mg/kg, day 23; for striatal PPE mRNA: VZD 20 mg/kg; for striatal PPD mRNA: VZD 10/20 mg/kg; for striatal c-Fos mRNA: VZD 10 or 20 mg/kg
[15] = system: L-DOPA-induced dyskinesia; test: FIG. 23A-23C: ALO AIMs, vilazodone and/or amantadine with L-DOPA
TRPV1 ion channel = TRPV1 ion channel (Homo sapiens, UniProt Q8NER1); settings: depending on the pharmacological assay; cited from earlier work
TRPV1 ion channel, sequence (Q8NER1 whole entry): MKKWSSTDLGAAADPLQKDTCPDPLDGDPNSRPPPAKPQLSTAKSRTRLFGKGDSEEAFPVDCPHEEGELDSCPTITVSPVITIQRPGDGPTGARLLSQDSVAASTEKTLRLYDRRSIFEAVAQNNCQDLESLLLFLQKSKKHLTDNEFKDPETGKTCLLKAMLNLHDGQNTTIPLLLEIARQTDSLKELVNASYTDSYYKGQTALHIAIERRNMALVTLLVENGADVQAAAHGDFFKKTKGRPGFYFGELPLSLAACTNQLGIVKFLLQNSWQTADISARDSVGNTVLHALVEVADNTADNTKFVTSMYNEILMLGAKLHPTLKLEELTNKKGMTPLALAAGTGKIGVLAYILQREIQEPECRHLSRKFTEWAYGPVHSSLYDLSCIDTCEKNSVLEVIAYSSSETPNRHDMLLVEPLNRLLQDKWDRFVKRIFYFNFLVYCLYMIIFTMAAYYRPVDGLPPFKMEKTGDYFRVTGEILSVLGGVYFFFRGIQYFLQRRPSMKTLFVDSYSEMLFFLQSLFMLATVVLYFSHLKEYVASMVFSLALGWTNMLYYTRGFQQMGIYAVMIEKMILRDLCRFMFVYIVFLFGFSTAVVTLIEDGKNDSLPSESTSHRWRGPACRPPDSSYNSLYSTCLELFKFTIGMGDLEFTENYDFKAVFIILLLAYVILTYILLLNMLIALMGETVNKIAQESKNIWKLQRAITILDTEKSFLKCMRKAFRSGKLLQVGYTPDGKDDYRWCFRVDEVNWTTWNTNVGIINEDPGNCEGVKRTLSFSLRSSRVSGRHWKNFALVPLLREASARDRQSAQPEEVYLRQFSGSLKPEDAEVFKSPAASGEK

SERT = SERT (Homo sapiens, UniProt P31645); settings: clinically effective dose range 5-20 mg/day; cited from earlier work
SERT, sequence (P31645 whole entry, species assumed): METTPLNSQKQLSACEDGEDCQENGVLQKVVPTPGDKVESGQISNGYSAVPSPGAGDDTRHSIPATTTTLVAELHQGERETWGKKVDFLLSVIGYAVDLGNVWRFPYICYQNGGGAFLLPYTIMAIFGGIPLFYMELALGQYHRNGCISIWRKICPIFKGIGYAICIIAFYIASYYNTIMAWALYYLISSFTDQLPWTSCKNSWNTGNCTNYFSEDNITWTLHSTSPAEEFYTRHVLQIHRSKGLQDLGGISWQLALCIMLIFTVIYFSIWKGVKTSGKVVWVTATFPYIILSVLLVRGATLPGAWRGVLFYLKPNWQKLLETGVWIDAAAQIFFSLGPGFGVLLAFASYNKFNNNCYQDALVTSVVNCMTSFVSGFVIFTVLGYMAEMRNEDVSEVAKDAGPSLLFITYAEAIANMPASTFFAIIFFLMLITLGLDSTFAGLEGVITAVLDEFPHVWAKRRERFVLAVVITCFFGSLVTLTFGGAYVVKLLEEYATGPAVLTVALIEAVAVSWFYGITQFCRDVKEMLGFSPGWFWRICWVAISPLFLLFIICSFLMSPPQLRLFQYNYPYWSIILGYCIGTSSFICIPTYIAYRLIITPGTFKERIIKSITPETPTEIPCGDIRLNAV

[16] = system: lesion-induced motor deficits; test: FIG. 23D: % intact stepping; assay type: in vivo; settings: L-DOPA alone or with AMA 40 mg/kg and/or VZD 2.5 mg/kg
[17] = in vivo; cited from earlier work
[18] = Dorsal Raphe Nucleus, VZD(0)+LD(6) mg/kg s.c.

Compound: Cl.N#Cc1ccc2[nH]cc(CCCCN3CCN(c4ccc5oc(C(N)=O)cc5c4)CC3)c2c1 [Vilazodone, 5-{4-[4-(5-cyano-3-indolyl)-butyl]-1-piperazinyl}-benzofuran-2-carboxamide hydrochloride]
- ALO AIMs, established LID ([1]; VZD 10 or 20 mg/kg s.c. 5 min before LD 6 mg/kg, vs VZD(0)+LD(6), from first day, persisted throughout treatment): dramatically reduced AIMs
- anti-LID efficacy, 20 mg/kg vs 10 mg/kg ([1]; dissipated after the first week): initially had greater anti-LID efficacy than the lower dose
- FAS motor performance vs baseline [2]: emerged 7 days later
- FAS stepping vs VZD(0)+LD(6) ([2]; VZD 20 mg/kg, Day 29, transient): depressed stepping
- 5-HIAA ([3]; Dorsal Raphe Nucleus, VZD(10)+LD(6) mg/kg s.c.): 12541 pg/mg wet tissue weight
- 5-HT Turnover ([3]; Striatum Lesion, VZD(10)+LD(6) mg/kg s.c.): 8.38
- DRN 5-HT ([3]; VZD 10 mg/kg + LD): significantly increased DRN 5-HT
- striatal 5-HIAA ([3]; VZD 20 mg/kg): attenuated 5-HIAA compared to all other treatments
- striatal 5-HT Turnover ([3]; VZD 20 mg/kg vs VZD(0)+LD(0)): reduced 5-HT Turnover
- DRN DA Turnover ([3]; VZD 10 or 20 mg/kg + LD): DA Turnover was attenuated
- DRN 5-HT Turnover ([3]; both doses VZD + LD): attenuated 5-HT Turnover
- DA in lesioned striatum (planned comparisons) ([3]; both doses VZD vs VZD vehicle groups): significantly increased DA in the lesioned striatum
- ALO AIMs, LID development [4]: significantly attenuated the development of LID
- FAS vs baseline [5]: significant increases in stepping, relative to baseline, from Day 8 thereafter
- FAS vs VZD(0)+LD(6) ([5]; VZD 10 mg/kg + LD 6 mg/kg, by Day 15): significantly enhanced the pro-motor effects of L-DOPA
- ALO AIMs [6]: significantly reduced ALO AIMs
- side effects, like 5-HT syndrome (hemi-parkinsonian rats): weren't observed at any time point
- LIDs severity [7]: most significant effect on attenuating LIDs
- forelimb akinesia / L-DOPA therapeutic (prokinetic) efficacy [8]: no effects on forelimb akinesia or L-DOPA-induced prokinetic effects
- spike probability and onset latency [9]: normalizes spike probability and onset latency
- ALO AIMs, LID development ([10]; over 14 days): persistently reduced AIMs
- reduction of development and expression of LID, compared with Amantadine ([10]; validated rodent model): more effective than Amantadine
- LID duration (time course) ([11]; VZD 10 mg/kg + LD 6 mg/kg): little effect on LID duration
- peak dyskinesia (time course) ([11]; VZD 10 mg/kg + LD 6 mg/kg): reduced peak dyskinesia
- summed ALO AIMs ([11]; VZD 10 mg/kg, WAY 0.5 mg/kg, LD 6 mg/kg s.c.): significantly reduced ALO AIMs
- IC50 (NET): 56 nM
- IC50 (DAT): 37 nM
- increase of [35S]GTPyS binding compared to vehicle [12]: fourfold
- change in extracellular levels of norepinephrine or dopamine [13]: no change
- striatal PPE mRNA [14]: modestly, though significantly reduced
- striatal PPD mRNA [14]: dose-dependently attenuated
- striatal c-Fos mRNA [14]: diminished by either dose
- striatal 5-HT1AR mRNA ([14]; rat, in vivo): did not affect striatal 5-HT1AR mRNA
- striatal PPT mRNA ([14]; rat, in vivo): reduced striatal PPT
- ALO AIMs, combined amantadine and vilazodone ([15]; VZD 2.5 mg/kg, AMA 40 mg/kg, L-DOPA): continued to reduced AIMs
- ALO AIMs ([15]; VZD 5 mg/kg + L-DOPA): moderately
- ALO AIMs ([15]; VZD 1 and 2.5 mg/kg + L-DOPA): modestly reduced AIMs

Compound: Oc1cc2c(cc1O)CN(C(=S)NCCc1ccc(Cl)cc1)CCC2 [Capsazepine]
- IC50 (TRPV1 ion channel): nanomolar to low micromolar range

Compound: Cc1ccc(Sc2ccccc2N2CCNCC2)c(C)c1 [Vortioxetine]
- SERT occupancy (SERT): 50 to 80%

Compound: N[C@@H](Cc1ccc(O)c(O)c1)C(=O)O [L-DOPA, L-3,4-dihydroxyphenylalanine]
- LID during 14 days of priming ([1]; LD 6 mg/kg s.c. vs L-DOPA vehicle): significantly greater LID
- FAS motor performance vs baseline [2]: significant improvements on motor performance over baseline
- 5-HIAA [3, 18]: 2778 pg/mg wet tissue weight
- 5-HT [3, 18]: 5457 pg/mg wet tissue weight
- 5-HT Turnover [3, 18]: 0.57
- DA [3, 18]: 112 pg/mg wet tissue weight
- DA Turnover [3, 18]: 10.3
- DOPAC [3, 18]: 1114 pg/mg wet tissue weight
- DRN DA, DOPAC and DA Turnover ([3]; LD 6 mg/kg): significantly increased DRN levels of DA, DOPAC and DA Turnover
- FAS vs baseline [5]: significant increases in motor ability on each test day
- % intact stepping [16]: reversed lesion-induced motor deficits
- fraction crossing the blood-brain barrier [17]: 5-10%
- striatal PPE mRNA [14]: significantly increased PPE in the lesioned striata
- striatal PPD mRNA [14]: significantly increased PPD in the lesioned striata
- striatal c-Fos mRNA [14]: potentiated c-Fos in lesioned striata
- striatal PPT mRNA ([14]; rat, in vivo): did not increase striatal PPT
